Counter-ions that a name gives are not always drawn.
Legend:
[1] = biological target: ALPK1 (Homo sapiens (Human), UniProt Q96QP1); assay: ALPK1 in vitro kinase assay (HTRF of TIFA phosphorylation); type: biochemical; conditions: ALPK1 2 nM activated by ADP-Heptose, TIFA substrate
Procedure: ALPK1 in vitro Kinase Assay
ALPK1 kinase activity was measured in an in vitro assay using ADP-Heptose as the ALPK1 ligand and activator of its kinase activity and TIFA protein as the ALPK1 phosphorylation substrate. Since phosphorylated TIFA proteins oligomerize, Homogeneous Time-Resolved Fluorescence (HTRF) was used to measure protein: protein interaction between HA-tagged TIFA proteins as an indicator of TIFA phosphorylation.
In brief, dose-response studies were performed in 384-well assay plates. Each well contained 0.1 mg TIFA, ALPK1 (2 nM final concentration in reaction mixture) and kinase buffer (100 mM of HEPES pH 7.4, 4 mM DTT, 40 mM MgCl2, 20 mM of β-Glycerol phosphate disodium salt, 0.4 mM of Na3VO4, 0.16 mg/mL). Titrations of the test compounds were prepared in dimethylsulphoxide (DMSO). The reaction was initiated by addition of ATP and ADP-Heptose.
For HTRF, samples were incubated with a Tb cryptate-labeled anti-HA antibody for capturing HA-tagged proteins according to the manufacturer's instructions (PerkinElmer™, CisBio™) and the fluorescence signal was quantified (Tecan Infinite F NANO+). HTRF signals were calculated as the HTRF ratio (ratio of fluorescence measured at 665 nm and 620 nm)×104 (thereby using the signal at 620 nm as an internal standard).
IC50 values were determined using 3- or 4-parameter logistic equation using GraphPad Prism version 6.00. The reference compound, A027, was used as a positive control for each plate.

[2] = test system: ALPK1-dependent NFκB reporter gene activation in HEK293 cells stably expressing an NF-kB reporter (G9 cells); assay: NFκB gene reporter alkaline phosphatase assay; type: cell-based; conditions: Homo sapiens, read-out: NFKB assay IC50
Procedure: NFκB Gene Reporter Alkaline Phosphatase Assay
An alkaline phosphatase reporter assay system was used to measure inhibition of ALPK1-dependent NFκB reporter gene activation. Briefly, HEK293 cells stably expressing an NF-kB reporter (referred to herein as “G9 cells”) were maintained in Dulbecco's Modified Eagle Medium (DMEM) supplemented with 10% fetal bovine serum (FBS, Hyclone™) containing antibiotics (pen/strep, G418) […]. For the assay, cells were seeded into 96-well plates at a density of 10,000 cells/well in Freestyle™ 293 Expression Medium (ThermoFisher) and allowed to attach overnight. […] NFkB gene activation was detected using the chromogenic substrate, para-nitrophenyl phosphate (pNPP) according to the manufacturer's protocols (pNPP Phosphatase Assay, Beyotime Biotechnology).

[3] = test system: lupus nephritis in MRL/MpJ-Faslpr/J mice; assay: MRL/MpJ-Faslpr/J mouse lupus nephritis model; type: in vivo
Text: After 8 weeks of treatment, the animals were sacrificed, and their urine was collected for proteinuria assessment using Urine Protein Test Strips (FIG. 9). The right kidneys were harvested and stained by hematoxylin and eosin (H&E) for pathological evaluation (FIG. 10A-G).

[4] = test system: ALPK1-dependent gene expression in kidney; assay: Inhibition of ALPK1 in kidney: ALPK1 agonist-induced gene expression in rats; type: in vivo, Sprague-Dawley (SD) rats; conditions: SD rats, oral 2, 5, 10, 20 mpk 21 h before ip ALPK1 agonist, kidneys 3 h after agonist; relative to vehicle group
[5] = test system: adenine diet induced rat CKD model
Text: We started compound dosing from day 14 after adenine diet inception for 6 weeks. During the study, we collected plasma and measure the Blood Urea Nitrogen (BUN) (FIG. 6A) and creatine (FIG. 6B) level weekly.

[6] = test system: UUO induced kidney fibrosis; conditions: rat UUO
Text: Briefly, we ligated the left ureter of rat and then start the daily oral treatment right after the surgery for 7 days, and then measure the kidney fibrosis by hydroxyproline content measurement and Sirus red staining. Because of the amount of renal inflammation, we used hydroxyproline (OH-P) content indexed to total protein for interpretation of UUO-induced fibrosis and compound efficacy (FIG. 3A) For completeness, we also analyzed the OH-P content indexed to tissue mass (FIG. 3B).

[7] = 10 mg/kg oral daily, 8 weeks, kidney H&E
[8] = daily oral treatment for 7 days, C008 at 7 mpk & 20 mpk

Chain of ALPK1 (Q96QP1 whole entry): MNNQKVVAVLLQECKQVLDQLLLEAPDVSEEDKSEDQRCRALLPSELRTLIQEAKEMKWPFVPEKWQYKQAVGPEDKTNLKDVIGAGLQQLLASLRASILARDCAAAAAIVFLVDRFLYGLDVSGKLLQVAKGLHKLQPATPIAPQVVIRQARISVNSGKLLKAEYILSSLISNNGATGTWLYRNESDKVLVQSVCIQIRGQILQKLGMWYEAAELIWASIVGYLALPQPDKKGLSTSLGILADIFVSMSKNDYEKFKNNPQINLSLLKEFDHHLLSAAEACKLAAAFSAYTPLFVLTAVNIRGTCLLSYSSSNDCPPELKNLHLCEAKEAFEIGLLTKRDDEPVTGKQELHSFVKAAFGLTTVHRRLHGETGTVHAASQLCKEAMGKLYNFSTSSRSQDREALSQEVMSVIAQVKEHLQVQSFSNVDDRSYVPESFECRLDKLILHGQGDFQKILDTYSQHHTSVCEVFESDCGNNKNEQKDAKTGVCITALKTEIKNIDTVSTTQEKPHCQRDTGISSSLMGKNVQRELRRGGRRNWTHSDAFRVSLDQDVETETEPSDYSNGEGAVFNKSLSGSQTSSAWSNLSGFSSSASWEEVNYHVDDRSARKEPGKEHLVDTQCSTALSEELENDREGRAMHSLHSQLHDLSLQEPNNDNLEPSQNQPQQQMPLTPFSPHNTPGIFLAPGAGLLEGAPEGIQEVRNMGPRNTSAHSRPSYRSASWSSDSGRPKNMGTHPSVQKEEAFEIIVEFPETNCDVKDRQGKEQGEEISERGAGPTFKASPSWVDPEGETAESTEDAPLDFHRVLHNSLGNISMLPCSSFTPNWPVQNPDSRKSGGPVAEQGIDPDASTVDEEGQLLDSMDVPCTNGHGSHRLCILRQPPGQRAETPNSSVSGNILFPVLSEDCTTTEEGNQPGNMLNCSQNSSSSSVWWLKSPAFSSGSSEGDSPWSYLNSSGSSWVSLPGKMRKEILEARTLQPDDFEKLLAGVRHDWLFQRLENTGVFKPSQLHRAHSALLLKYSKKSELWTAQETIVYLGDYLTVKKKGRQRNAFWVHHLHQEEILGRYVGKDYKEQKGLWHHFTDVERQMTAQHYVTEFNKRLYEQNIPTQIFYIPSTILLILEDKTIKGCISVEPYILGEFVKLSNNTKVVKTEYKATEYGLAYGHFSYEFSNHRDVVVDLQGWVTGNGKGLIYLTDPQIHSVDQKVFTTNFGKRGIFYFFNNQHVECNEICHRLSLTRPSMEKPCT

Structure (SMILES): C#C[C@@](C)(c1ccc(F)cc1)c1csc(NC(=O)c2ccc(N3CCNCC3CO)cc2)n1 (stereo in doubt) [Example B070, N-[4-[1-(4-fluorophenyl)-1-methyl-prop-2-ynyl]thiazol-2-yl]-4-[2-(hydroxymethyl)piperazin-1-yl]benzamide]
- IC50 [1]: 169 nM

Structure (SMILES): C#C[C@](C)(c1ccc(Cl)cc1)c1csc(NC(=O)c2c(F)cc(N3CCN(C)CC3)cc2F)n1 (stereo in doubt) [Example C009, N-(4-(2-(4-chlorophenyl)but-3-yn-2-yl)thiazol-2-yl)-2,6-difluoro-4-(4-methylpiperazin-1-yl)benzamide]
- IC50 [1]: 7 nM

Structure (SMILES): C#C[C@](C)(c1ccc(Cl)cc1)c1nc(NC(=O)c2c(F)cc(N3CCNCC3)cc2F)sc1Cl (stereo in doubt) [Example C050, N-(5-chloro-4-(2-(4-chlorophenyl)but-3-yn-2-yl)thiazol-2-yl)-2,6-difluoro-4-(piperazin-1-yl)benzamide]
- IC50 [1]: 923 nM

Structure (SMILES): COc1ccc(C(C)(C)c2csc(NC(=O)NCc3cc(F)c(C4CCNCC4)c(F)c3)n2)cc1 [Example A151, 1-(3,5-difluoro-4-(piperidin-4-yl)benzyl)-3-(4-(2-(4-methoxyphenyl)propan-2-yl)thiazol-2-yl)urea hydrochloride]
- IC50 [2]: 950 nM

Structure (SMILES): COc1ccc(C(C)(C)c2csc(NC(=O)NCc3cc(F)c(N4CCNCC4)cc3F)n2)cc1 [Example A231, 1-(2,5-difluoro-4-(piperazin-1-yl)benzyl)-3-(4-(2-(4-methoxyphenyl)propan-2-yl)thiazol-2-yl)urea hydrochloride]
- IC50 [2]: 3360 nM

Structure (SMILES): COc1ccc(C(C)(C)c2csc(NC(=O)N3CC(c4ccc(N5CCNCC5)cc4)C3)n2)cc1 [Example A233, N-(4-(2-(4-methoxyphenyl)propan-2-yl)thiazol-2-yl)-3-(4-(piperazin-1-yl)phenyl)azetidine-1-carboxamide]
- IC50 [2]: 330 nM

Structure (SMILES): COc1ccc(C(C)(C)c2csc(NC(=O)c3ccc(N4CCC(O)C4)cc3)n2)cc1 (centres unmarked) [Example B009, 4-(3-hydroxypyrrolidin-1-yl)-N-(4-(2-(4-methoxyphenyl)propan-2-yl)thiazol-2-yl)benzamide]
- IC50 [1]: 95 nM

Structure (SMILES): COc1ccc(C(C)(C)c2csc(NC(=O)c3ccc(N4CCNCC4C)cc3)n2)cc1 (centres unmarked) [Example B014]
- IC50 [1]: 300 nM

Structure (SMILES): C#C[C@@](C)(c1ccc(Cl)cc1)c1csc(NC(=O)c2c(F)cc(N3CCNCC3)cc2F)n1 [Example C008, (S)-N-(4-(2-(4-chlorophenyl)but-3-yn-2-yl)thiazol-2-yl)-2,6-difluoro-4-(piperazin-1-yl)benzamide]
- proteinuria scores ([3]; 10 mg/kg oral daily, 8 weeks, compared to vehicle disease group): significant reduction
- pathological score: crescent [3, 7]: significantly lower
- pathological score: glomerulus diameter [3, 7]: significantly lower
- pathological score: interstitial inflammation [3, 7]: significantly lower
- pathological score: protein cast [3, 7]: significantly lower
- mRNA expression of Ccl2, Ccl4, Ccl5, Ccr1 and IL-6 in kidney ([3]; left kidneys, qPCR, after 8 weeks, relative to vehicle group): significant decreases
- mRNA expression for CCL-2, CCL-7, CXCL-1, CXCL-10, IL-1β and IL-6 in kidney [4]: significant decreases
- adenine-induced increases in renal cortical CVF ([5]; rat adenine diet, end of study, C008 at 7 and 20 mpk): attenuated
- adenine-induced increases in plasma creatinine ([5]; rat adenine diet, ALK5i: days 35-56, C008: days 35 (20 mpk), 49 & 56 (7&20 mpk)): attenuated
- adenine-induced increases in plasma BUN ([5]; rat adenine diet, ALK5i: days 35-56, C008: days 42 (20 mpk), 49 (7&20 mpk), 56 (20 mpk)): attenuated
- adenine diet induced kidney dysfunction and kidney fibrosis ([5]; rat, C008 7, 20 mg/kg, dosing from day 14 for 6 weeks): significantly inhibit
- UUO induced kidney fibrosis ([6]; C008 2, 7, 20 mg/kg): dose dependently suppress
- UUO-induced increases in renal cortical CVF (Collagen Volume Fraction, Sirus Red) [6, 8]: attenuated
- UUO-induced increases in renal cortical OH-P (hydroxyproline) [6, 8]: attenuated
- kidney expression of genes involved in fibrosis and inflammation ([6]; separate study, C008 5, 10, 20 mg/kg): inhibited

Reference: patent US20250381196A1 (SHANGHAI YAO YUAN BIOTECHNOLOGY CO., LTD., priority 2022, published 2025)
